Five molecules from ChEMBL document CHEMBL4622922, “Discovery of novel potent GPR40 agonists containing imidazo[1,2-a]pyridine core as antidiabetic agents” (Bioorg Med Chem, 2020) can be followed below.

Series [1] has as its target Free fatty acid receptor 1 (Homo sapiens, UniProt O14842). Briefly: Agonist activity at GPR40 (unknown origin).
The nature of series [2]: Hypoglycemic activity in normoglycemic ICR mouse assessed as blood glucose level at 30 mg/kg, po administered 30 mins prior to glucose challenge and measured at 1 hr post-compound administration by OGTT. It counts as ADME, organism-based. The note with it: in vivo.
The test system of the next series is Mus musculus. Put plainly: Glucose lowering activity in po dosed normoglycemic ICR mouse assessed as suppression of blood glucose level administered for 30 mins followed by glucose challenge and measured upto 120 mins by OGTT. The class given is functional, organism-based.
The nature of series [3]: Clearance in Sprague-Dawley rat at 10 mg/kg, po by LC-MS/MS analysis. The note with it: in vivo. The class given is ADME, organism-based.
Series [4] can be described thus: AUC (0 to 24 hrs) in Sprague-Dawley rat at 10 mg/kg, po by LC-MS/MS analysis. It counts as ADME, organism-based. More on the design: time < 24 hr, dose 10 mg/kg, route oral. To be noted: in vivo.
A short description of series [5]: Cmax in Sprague-Dawley rat at 10 mg/kg, po by LC-MS/MS analysis. The class given is ADME, organism-based. The arrangement: dose 10 mg/kg, route oral. To be noted: in vivo.
Series [6] can be described thus: Half life in Sprague-Dawley rat at 10 mg/kg, po by LC-MS/MS analysis. It counts as ADME, organism-based. The note with it: in vivo.
The nature of series [7]: Tmax in Sprague-Dawley rat at 10 mg/kg, po by LC-MS/MS analysis. The class given is ADME, organism-based. To be noted: in vivo.
Series [8] is described as follows: Hypoglycemic activity in normoglycemic ICR mouse at 90 mg/kg, po administered for 30 mins followed by glucose challenge and measured upto 120 mins by OGTT. It counts as ADME, organism-based. The note with it: in vivo.
The nature of series [9]: Hepatotoxicity in HFD fed/STZ-treated diabetic C57BL/6 mouse model assessed as increase in ALT level in blood at 30 mg/kg, po administered for 4 weeks. The class given is toxicity, organism-based. To be noted: in vivo, 672 h.
Series [10] can be described thus: Hepatotoxicity in HFD fed/STZ-treated diabetic C57BL/6 mouse model assessed as increase in AST level in blood at 30 mg/kg, po administered for 4 weeks. It counts as toxicity, organism-based. The note with it: in vivo, 672 h.

Free fatty acid receptor 1, sequence (O14842 whole entry): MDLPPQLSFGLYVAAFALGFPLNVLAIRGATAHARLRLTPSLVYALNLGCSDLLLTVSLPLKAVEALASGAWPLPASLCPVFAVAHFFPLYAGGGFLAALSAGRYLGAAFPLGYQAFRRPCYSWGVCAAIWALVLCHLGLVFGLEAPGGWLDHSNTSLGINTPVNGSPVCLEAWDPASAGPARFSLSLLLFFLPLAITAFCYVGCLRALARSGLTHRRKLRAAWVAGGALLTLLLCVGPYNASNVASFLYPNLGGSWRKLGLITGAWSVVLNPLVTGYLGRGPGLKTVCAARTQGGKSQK

In series [1], `CC#CC(CC(=O)O)c1ccc(OCc2ccc3nc(-c4ccc(C)cc4C)cn3c2)cc1` (configuration not stated) gave an EC50 of 316 nM.
As for `CC#CC(CC(=O)O)c1ccc(OCc2ccn3cc(-c4ccccc4OCC)nc3c2)cc1` (configuration not stated), a half-maximal response in series [1] (EC50) required 231 nM. Moreover, the Activity result in series [2] was “Non-Toxic”.
Turning to `CC#CC(CC(=O)O)c1ccc(OCc2ccc3nc(-c4ccc(OC)cc4)cn3c2)cc1` (configuration not stated), the Activity result with Mus musculus was “Dose-dependent effect”; in series [2], “Non-Toxic”; in [8], “Non-Toxic”; in series [9], “Non-Toxic”; in series [10], “Non-Toxic”. For the same molecule, the apparent clearance (CL/F) in [3] was 0.454 mL/min/kg. Besides, the AUC(0-t) at 24 h in [4] was 288 µg·h/mL. The molecule further gave a Cmax in [5] of 16300 ng/mL. In addition, the half-life in [6] is 5.93 h. Besides, the EC50 in series [1] was 47 nM. The Tmax in series [7] stood at 8.26 h.
On to `CC#CC(CC(=O)O)c1ccc(OCc2ccc3nc(-c4ccc(C)cc4)cn3c2)cc1` (configuration not stated), for which, in series [1], a half-maximal effect (EC50) was put at 507 nM.
Turning to `Cc1cc(OCCCS(C)(=O)=O)cc(C)c1-c1cccc(COc2ccc3c(c2)OC[C@H]3CC(=O)O)c1`, the Activity entry in series [9] and in [10] was “Toxic” in each case.
